This note sets out measurements from patent US20180116993A1, “MODULATORS OF FARNESOID X RECEPTOR AND METHODS FOR THE USE THEREOF” (XIAMEN UNIVERSITY, priority 2015, published 2018).

Read-outs that look alike come from different tables or passages of the source. Where only a bound is given, the exact number is not on record here.

The subject of assay [1] is RA-resistant human colon cancer HCT116 cells. The assay can be described thus: MTT cell viability assay, HCT116. In kind it is cell-based. The settings on record: 48 h, read-out: Cell viability as a percentage of the cells treated with DMSO, HCT116; for viability at 20 µM: HCT-116, 20 uM; for viability at 40 µM: HCT-116, 40 uM. The gist of the method:
(§1)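 First, cells are cultured in DMEM with 10% fetal bovine serum. Next, compound is applied at 20 uM or 40 uM. Finally, MTT measures metabolic activity, normalised to DMSO-treated wells as percent viability.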

For assay [2], the target named is T1, FXR ligand binding domain (LBD) (Homo sapiens, UniProt Q96RI1).
T1 construct: made in house
T1 sequence (Q96RI1 262-486 limits assumed): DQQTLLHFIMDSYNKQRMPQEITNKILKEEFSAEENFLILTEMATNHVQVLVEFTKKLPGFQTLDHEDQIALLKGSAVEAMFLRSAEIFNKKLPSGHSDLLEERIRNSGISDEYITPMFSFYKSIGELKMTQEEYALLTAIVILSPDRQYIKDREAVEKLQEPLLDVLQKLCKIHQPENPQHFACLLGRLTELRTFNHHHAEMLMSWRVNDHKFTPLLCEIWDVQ
Briefly: AlphaScreen assay: FXR LBD recruitment of coregulator peptide motifs (SRC2-3, SRC1-2). In kind it is biochemical. In general terms: Bead proximity is the source of the signal in Alpha formats.

The subject of assay [3] is human cervical carcinoma Hela cells. Briefly: MTT cell viability assay, Hela. It is filed as cell-based. The note with it: 48 h, read-out: Cell viability as a percentage of the cells treated with DMSO, Hela. The gist of the method: as §1
(In general: Tetrazolium assays rely on reduction of a dye to a coloured formazan, in cell work by metabolically active cells.)

In the next assay the target is T2, full-length FXR (Homo sapiens, UniProt Q96RI1).
T2 construct: The cells were co-transfected with plasmids encoding full-length FXR and the cognate luciferase reporter EcRE-Luc; expressed in transfected cells; host or cells: COS-7
T2 sequence (Q96RI1 1-486): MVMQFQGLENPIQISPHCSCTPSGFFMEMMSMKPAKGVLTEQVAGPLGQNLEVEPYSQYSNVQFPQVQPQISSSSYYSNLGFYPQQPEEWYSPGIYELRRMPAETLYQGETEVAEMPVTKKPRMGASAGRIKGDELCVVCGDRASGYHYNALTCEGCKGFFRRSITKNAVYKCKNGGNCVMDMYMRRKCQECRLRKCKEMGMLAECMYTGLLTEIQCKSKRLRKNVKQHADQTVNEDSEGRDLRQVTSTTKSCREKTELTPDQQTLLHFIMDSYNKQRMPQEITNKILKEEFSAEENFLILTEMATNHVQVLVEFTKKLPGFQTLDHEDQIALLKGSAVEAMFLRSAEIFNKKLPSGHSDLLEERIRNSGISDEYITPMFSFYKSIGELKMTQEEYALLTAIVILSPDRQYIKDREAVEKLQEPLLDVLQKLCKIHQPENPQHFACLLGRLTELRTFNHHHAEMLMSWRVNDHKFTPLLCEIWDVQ
The assay can be described thus: Cell-based FXR transactivation, EcRE luciferase reporter in COS-7 cells. The settings on record: for fold induction at 5 µM / Cell-based FXR transactivation Fold changes by 5 μM compound: 5 μM compound; for fold induction at 5 µM / EC50: EcRE luciferase reporter; for Cell-based FXR transactivation Fold changes by 5 μM compound: positive: induction, minus: repression. The gist of the method:
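COS-7 cells were transiently cotransfected with full-length FXR, EcRE-Luc reporter and a renilla control. Ligands were added 5 h after transfection, and cells were harvested 24 h later. Firefly luciferase was normalized to renilla in a dual-luciferase read-out.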
(A reporter such as luciferase makes a cellular process visible.)

Assay [4] concerns human colorectal adenocarcinoma HCT15 cells. The assay can be described thus: MTT cell viability assay, HCT15. It is filed as cell-based. The note with it: 48 h, read-out: Cell viability as a percentage of the cells treated with DMSO, HCT15; for viability at 20 µM: HCT-15, 20 uM; for viability at 40 µM: HCT-15, 40 uM. The gist of the method: as §1
The test system of assay [5] is human breast cancer MCF7 cells. The assay can be described thus: MTT cell viability assay, MCF-7. The note with it: 48 h, read-out: Cell viability as a percentage of the cells treated with DMSO, MCF-7. In kind it is cell-based. The gist of the method:
as §1

In assay [6] the test system is human hepatoma HepG2 cells. The assay can be described thus: MTT cell viability assay, HepG2. In kind it is cell-based. The note with it: 48 h, read-out: Cell viability as a percentage of the cells treated with DMSO, HepG2. The gist of the method: as §1
Setting [7] is: SRC1-2 peptide, Table 1, read-out: EC50 (μM) of FXR binding by AlphaScreen assay recruit SRC1-2.
Where [8] appears, read: SRC2-3 peptide, Table 1, read-out: EC50 (μM) of FXR binding by AlphaScreen assay recruit SRC2-3.
Where [9] appears, read: SRC1-2 peptide, Table 2, read-out: EC50 (μM) of FXR binding by AlphaScreen assay recruit SRC1-2.
The mark [10] stands for this setting: SRC2-3 peptide, Table 2, read-out: EC50 (μM) of FXR binding by AlphaScreen assay recruit SRC2-3.

As to `O=C(OC1CCCCCCC1)c1ccc(O)cc1` [XD-10, cyclooctyl 4-hydroxybenzoate], the viability at 20 µM was 92 ± 6% in assay [1]; 90 ± 4% in assay [3]; 60 ± 4% in assay [4]; 93 ± 7% in assay [5]; 90 ± 3% in assay [6]. Moreover, the viability at 40 µM was 30 ± 4% in assay [1]; 40 ± 3% in assay [3]; 41 ± 4% in assay [4]; 28% in assay [5]; 35 ± 1% in assay [6]. The EC50 (in assay [2] (setting [7]); in assay [2] (setting [8]); on full-length FXR (Table 1)) was less than 1 µM each time. The same compound came in with a fold induction at 5 µM at full-length FXR (Table 1) of 8.

Turning to `Cc1cc(C(=O)OC2CCC3CCCCC3C2)ccc1O` (centres unmarked) [XD-29, decahydro-naphthalen-2-yl 4-hydroxy-3-methylbenzoate], the viability at 20 µM in assay [1] worked out at 100 ± 2%; in assay [3], 96 ± 2%; in assay [4], 72 ± 2%; in assay [5], 100 ± 2%; in assay [6] it was 100 ± 2%. Moreover, the viability at 40 µM was found to be 96 ± 2% in assay [1]; 90 ± 2% in assay [3]; 52 ± 2% in assay [4]; 88% in assay [5]; 98 ± 2% in assay [6]. The 50% effective concentration (EC50) in assay [2] (setting [9]) is less than 0.5 µM; in assay [2] (setting [10]), less than 0.5 µM; on full-length FXR (Table 2) it was less than 1 µM. Also, the “Cell-based FXR transactivation Fold changes by 5 μM compound” value at full-length FXR (Table 2) came out at 3.

Turning to `O=C(OC1CCC2CCCCC2C1)c1ccc(O)cc1` (centres unmarked) [XD-28, decahydro-naphthalen-2-yl 4-hydroxy-benzoate], the viability at 20 µM stood at 100 ± 4% in assay [1]; 94 ± 4% in assay [3]; 99 ± 4% in assay [4]; 100 ± 4% in assay [5]; 100 ± 4% in assay [6]. The viability at 40 µM in assay [1] is 88 ± 4%; in assay [3], 92 ± 4%; in assay [4] it was 81 ± 4%; in assay [5], 98 ± 4%; in assay [6], 96 ± 4%. The 50% effective concentration (EC50) was less than 0.5 µM in assay [2] (setting [9]), less than 0.5 µM in assay [2] (setting [10]) and less than 1 µM at full-length FXR (Table 2). For the same compound, the “Cell-based FXR transactivation Fold changes by 5 μM compound” value on full-length FXR (Table 2) is given as 3.

In the case of `CC1(C)C2CCC1(C)C(OC(=O)C1CCC(O)CC1)C2` (centres unmarked) [XD-20, 1,7,7-trimethyl-bicyclo[2.2.1]-heptan-2-yl 4-hydroxy-cyclohexane-carboxylate], the viability at 20 µM stood at 79 ± 2% in assay [1]; 100 ± 5% in assay [3]; 100 ± 4% in assay [4]; 85% in assay [5]; 100 ± 5% in assay [6]. The viability at 40 µM in assay [1] was 70 ± 7%; in assay [3], 96 ± 1%; in assay [4] it was 84 ± 4%; in assay [5] it was 82 ± 1%; in assay [6] it was 100 ± 2%. Moreover, the concentration giving a half-maximal response (EC50) (in assay [2] (setting [9]); in assay [2] (setting [10]); at full-length FXR (Table 2)) was 1 to 10 µM in each case. Besides, on full-length FXR (Table 2), the “Cell-based FXR transactivation Fold changes by 5 μM compound” value is 6.

Regarding `CC1(C)[C@@H]2CC[C@@]1(C)[C@@H](OC(=O)c1ccc(O)cc1)C2` [Tschimgine], the viability at 20 µM in assay [1] stood at 93 ± 4%; in assay [3], 94%; in assay [4], 97 ± 6%; in assay [5], 93%; in assay [6] it was 97%. In addition, the viability at 40 µM in assay [1] was found to be 25 ± 5%; in assay [3] it was 31 ± 4%; in assay [4], 31 ± 2%; in assay [5], 32%; in assay [6], 30 ± 3%. Further, the EC50 (in assay [2] (setting [7]); in assay [2] (setting [8]); on full-length FXR (Table 1)) was less than 1 µM each time. In addition, the fold induction at 5 µM on full-length FXR (Table 1) was greater than 10.

In the case of `COc1cc(C(=O)OC2CCC3CCCCC3C2)ccc1[N+](=O)[O-]` (centres unmarked) [XD-36, decahydro-naphthalen-2-yl 3-methoxy-4-nitrobenzoate], the viability at 20 µM came to 93 ± 3% in assay [1]; 93 ± 3% in assay [3]; 100 ± 3% in assay [4]; 100 ± 3% in assay [5]; 100 ± 3% in assay [6]. For the same compound, the viability at 40 µM was determined as 91 ± 3% in assay [1]; 85 ± 3% in assay [3]; 92 ± 3% in assay [4]; 87% in assay [5]; 81 ± 3% in assay [6]. Moreover, the EC50 (in assay [2] (setting [10]); on full-length FXR (Table 2)) was 1 to 10 µM each time. Moreover, the “Cell-based FXR transactivation Fold changes by 5 μM compound” value on full-length FXR (Table 2) is 3.

Take `COc1cc(C(=O)O[C@H]2C[C@H]3CC[C@]2(C)C3(C)C)ccc1O` [Tschimganine]: the viability at 20 µM in assay [1] amounted to 97 ± 1%; in assay [3] it was 98 ± 2%; in assay [4], 100 ± 1%; in assay [5] it was 100 ± 3%; in assay [6] it was 100 ± 1%. The viability at 40 µM in assay [1] was found to be 90 ± 4%; in assay [3], 97 ± 4%; in assay [4], 80 ± 9%; in assay [5], 99 ± 3%; in assay [6] it was 97 ± 3%. Besides, the half-maximal effective concentration (EC50) (in assay [2] (setting [7]); in assay [2] (setting [8]); at full-length FXR (Table 1)) was less than 1 µM each time. The same compound registered a fold induction at 5 µM at full-length FXR (Table 1) greater than 10.

Take `CC1(C)C2CCC1(C)C(OC(=O)c1ccncc1)C2` (centres unmarked) [XD-6, 1,7,7-trimethyl-bicyclo[2.2.1]-heptan-2-yl isonicotinate]: the viability at 20 µM was determined as 61 ± 1% in assay [1]; 100 ± 1% in assay [3]; 57 ± 2% in assay [4]; 100 ± 8% in assay [5]; 99 ± 1% in assay [6]. Further, the viability at 40 µM worked out at 45 ± 2% in assay [1]; 76 ± 1% in assay [3]; 42 ± 3% in assay [4]; 61% in assay [5]; 70 ± 2% in assay [6]. Also, the concentration for a half-maximal effect (EC50) (in assay [2] (setting [9]); in assay [2] (setting [10]); at full-length FXR (Table 2)) was 1 to 10 µM throughout. Further, the “Cell-based FXR transactivation Fold changes by 5 μM compound” value at full-length FXR (Table 2) is recorded as greater than 10.

With `O=C(OC1CCCCCCCCCCC1)c1ccc(O)cc1` [XD-11, cyclododecyl 4-hydroxybenzoate], the viability at 20 µM in assay [1] is 92 ± 2%; in assay [3], 100 ± 3%; in assay [4], 89 ± 2%; in assay [5] it was 100 ± 7%; in assay [6] it was 100 ± 1%. For the same compound, the viability at 40 µM in assay [1] came to 70 ± 7%; in assay [3], 100 ± 2%; in assay [4], 78 ± 3%; in assay [5], 100 ± 2%; in assay [6], 97 ± 1%. In addition, the 50% effective concentration (EC50) (in assay [2] (setting [9]); in assay [2] (setting [10]); at full-length FXR (Table 2)) was 1 to 10 µM each time. For the same compound, the “Cell-based FXR transactivation Fold changes by 5 μM compound” value on full-length FXR (Table 2) came to 4.

For orientation: viability means a per cent measure of how many cells are alive, often set against a control. By EC50 is commonly meant the midpoint of the concentration-response curve. As usually defined, the fold induction is the signal under treatment as a multiple of the control signal.
